Measurements as given in PubChem BioAssay (NCI).
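How tested: cells in 96-well plates exposed to compound for 48 hours at five concentrations. TGI: total growth inhibition.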

Legend:
Experiment in all cases: NCI tumour cell line growth inhibition, 48 h
HT29 colon = system: HT29 colon
SK-MEL-5 melanoma = system: SK-MEL-5 melanoma
SW-620 colon = system: SW-620 colon
HOP-92 NSCLC = system: HOP-92 NSCLC
MCF7 breast = system: MCF7 breast
SF-295 CNS = system: SF-295 CNS
EKVX NSCLC = system: EKVX NSCLC
DU-145 prostate = system: DU-145 prostate
NCI-H522 lung = system: NCI-H522 lung
UO-31 renal = system: UO-31 renal
SF-268 CNS = system: SF-268 CNS
UACC-257 melanoma = system: UACC-257 melanoma
OVCAR-3 ovarian = system: OVCAR-3 ovarian
786-0 renal = system: 786-0 renal
IGROV1 ovarian = system: IGROV1 ovarian
UACC-62 melanoma = system: UACC-62 melanoma
SK-OV-3 ovarian = system: SK-OV-3 ovarian
U251 CNS = system: U251 CNS
CCRF-CEM leukemia = system: CCRF-CEM leukemia
PC-3 prostate = system: PC-3 prostate
K-562 leukemia = system: K-562 leukemia
RPMI-8226 leukemia = system: RPMI-8226 leukemia
HCT-116 colon = system: HCT-116 colon
HOP-62 NSCLC = system: HOP-62 NSCLC
NCI/ADR-RES ovarian = system: NCI/ADR-RES ovarian
COLO 205 colon = system: COLO 205 colon
SNB-19 CNS = system: SNB-19 CNS
OVCAR-5 ovarian = system: OVCAR-5 ovarian
SR leukemia = system: SR leukemia
MOLT-4 leukemia = system: MOLT-4 leukemia
SN12C renal = system: SN12C renal
BT-549 breast = system: BT-549 breast
MDA-MB-231 breast = system: MDA-MB-231 breast
KM12 colon = system: KM12 colon
SF-539 CNS = system: SF-539 CNS
MDA-MB-435 = system: MDA-MB-435
HCT-15 colon = system: HCT-15 colon
TK-10 renal = system: TK-10 renal
LOX IMVI melanoma = system: LOX IMVI melanoma
RXF 393 renal = system: RXF 393 renal
NCI-H23 lung = system: NCI-H23 lung
SNB-75 CNS = system: SNB-75 CNS
SK-MEL-28 melanoma = system: SK-MEL-28 melanoma
ACHN renal = system: ACHN renal
M14 melanoma = system: M14 melanoma
SK-MEL-2 melanoma = system: SK-MEL-2 melanoma
OVCAR-4 ovarian = system: OVCAR-4 ovarian
A549 NSCLC = system: A549 NSCLC
OVCAR-8 ovarian = system: OVCAR-8 ovarian
MDA-N = system: MDA-N
HCC-2998 colon = system: HCC-2998 colon
MALME-3M melanoma = system: MALME-3M melanoma
HL-60(TB) leukemia = system: HL-60(TB) leukemia
NCI-H226 lung = system: NCI-H226 lung
NCI-H460 lung = system: NCI-H460 lung
T-47D breast = system: T-47D breast
CAKI-1 renal = system: CAKI-1 renal
HS 578T breast = system: HS 578T breast
A498 renal = system: A498 renal

Measured: TGI

O=c1[nH]nc(Cc2ccccc2)n1-n1cnnc1
not listed: MALME-3M melanoma | HL-60(TB) leukemia | NCI-H226 lung | NCI-H460 lung | T-47D breast | CAKI-1 renal | HS 578T breast | A498 renal
> 100 µM: all other assays above

Cn1c2ccccc2c2c3c(c4c5ccccc5n(C)c4c21)C(=O)c1ccccc1C3=O
40.2 µM: SR leukemia
51.1 µM: SF-539 CNS
52.4 µM: SNB-19 CNS
48.6 µM: RXF 393 renal
45.9 µM: U251 CNS
81.3 µM: TK-10 renal
60 µM: MALME-3M melanoma
63.5 µM: NCI-H23 lung
97.3 µM: ACHN renal
79.1 µM: MDA-MB-231 breast
52.6 µM: BT-549 breast
31.7 µM: 786-0 renal
68.2 µM: NCI-H522 lung
not listed: SF-268 CNS | K-562 leukemia | HS 578T breast | A498 renal
> 100 µM: all other assays above

CN(Cc1cnc2nc(N)nc(N)c2n1)c1ccc(C(=O)NC(CCC(=O)NCC(P(=O)(O)O)P(=O)(O)O)C(=O)O)cc1 (stereo not drawn)
68 µM: HOP-62 NSCLC
not listed: HOP-92 NSCLC | MCF7 breast | UO-31 renal | U251 CNS | CCRF-CEM leukemia | K-562 leukemia | RPMI-8226 leukemia | SNB-19 CNS | OVCAR-5 ovarian | BT-549 breast | KM12 colon | SF-539 CNS | MDA-MB-435 | TK-10 renal | RXF 393 renal | NCI-H23 lung | SK-MEL-28 melanoma | HCC-2998 colon | HL-60(TB) leukemia | NCI-H226 lung | CAKI-1 renal | A498 renal
> 100 µM: all other assays above

COC1CC(OC(=O)c2ccccc2)C(OC(=O)c2ccccc2)C(C)O1 (stereo not drawn)
not listed: HT29 colon | BT-549 breast | SNB-75 CNS | OVCAR-4 ovarian
> 100 µM: all other assays above
